From patent US20210369720A1, “SYNERGISTIC COMPOSITION HAVING NEUROPROTECTIVE PROPERTIES AND METHODS OF USE THEREOF” (Rutgers, The State University of New Jersey, priority 2018, published 2021)

Tests used:
Type in all cases: in vivo
c-fos = experiment: Immunohistochemical staining of c-fos in the hippocampus, Syn^Tg mice; settings: EHT 12 mg/kg/day and/or caffeine 50 mg/kg/day until six months of age
Text: (§1) Thy1-α-synuclein transgenic mice (Syn^Tg) on BDF1 background overexpressing human wild-type α-synuclein under the control of the Thy1 promoter were maintained by mating heterozygous transgenic females with WT BDF1 males (Rockenstein E, et al. (2002) Differential neuropathological alterations in transgenic mice expressing alpha-synuclein from the platelet-derived growth factor and Thy-1 promoters. J Neurosci Res 68(5):568-578). BDF1 mice (mixed C57BL/6-DBA/2) were generated every three months by mating female C57BL/6 (The Jackson Laboratory) and male DBA/2 mice (Charles River). Experiments were performed with male transgenic mice and their WT littermates. […] Wild-type littermates received regular water and control chow. […] At two months of age, mice were inoculated with α-Syn PFF unilaterally in the striatum. These treatments continued throughout the experiment until animals were sacrificed. Mice were weighed and their food and water intake was quantified weekly. […]
Vectastain elite ABC kit (Vector Laboratories, Burlingame, Calif.) and 3,3′-diaminobenzidine (Sigma-Aldrich) were used for amplifying and color development. […] For other stains, the whole microscopic field was analyzed. For p-α-Syn stains in the cortex, four matching regions in each of two sections per animal were counted.

Iba-1 = experiment: Immunohistochemical staining of Iba-1 in the striatum, α-Syn PFF inoculated WT mice; settings: EHT 12 mg/kg/day and/or caffeine 50 mg/kg/day, vs untreated α-Syn PFF inoculated group
Text: as §1, with “weekly. Animals were housed 2-5/cage in an AAALAC approved facility in a temperature- and humidity-controlled environment under a 12-hour light/dark cycle and were maintained on a diet of lab chow and water ad libitum.” for “weekly.”

[1] = test system: phosphorylated α-synuclein (p-α-Syn); experiment: Immunohistochemical staining of p-α-Syn, α-Syn PFF inoculated WT mice; settings: EHT 12 mg/kg/day and/or caffeine 50 mg/kg/day
Text: (§2) Thy1-α-synuclein transgenic mice (Syn^Tg) on BDF1 background overexpressing human wild-type α-synuclein under the control of the Thy1 promoter were maintained by mating heterozygous transgenic females with WT BDF1 males (Rockenstein E, et al. (2002) Differential neuropathological alterations in transgenic mice expressing alpha-synuclein from the platelet-derived growth factor and Thy-1 promoters. J Neurosci Res 68(5):568-578). BDF1 mice (mixed C57BL/6-DBA/2) were generated every three months by mating female C57BL/6 (The Jackson Laboratory) and male DBA/2 mice (Charles River). Experiments were performed with male transgenic mice and their WT littermates. […] Wild-type littermates received regular water and control chow. […] At two months of age, mice were inoculated with α-Syn PFF unilaterally in the striatum. These treatments continued throughout the experiment until animals were sacrificed. Mice were weighed and their food and water intake was quantified weekly. Animals were housed 2-5/cage in an AAALAC approved facility in a temperature- and humidity-controlled environment under a 12-hour light/dark cycle and were maintained on a diet of lab chow and water ad libitum. All animal procedures were approved by the Rutgers-Robert Wood Johnson Medical School Institutional Animal Care and Use Committee and were performed according to the National Institutes of Health Guide for the Care and Use of Laboratory Animals.
α-Syn PFF solution was sonicated at 60% amplitude 30 times (0.5 sec on, 0.5 sec off). During the stereotactic surgery, two month old WT C57BL/6 mice were anesthetized by Ketamine/xylazine (90/4.5 mg/kg, i.p., Ketaset from Zoetis, and Anased from Akorn) and positioned in a digital stereotaxic apparatus (Stoelting, Wood Dale, Ill.). A midline sagittal incision was made in the scalp, and a hole was drilled in the skull over the right striatum according to the coordinates below. All injections were made using a Hamilton neuros syringe equipped with a 33 gauge needle and attached to a Quintessential Stereotaxic Injector (Stoelting, Wood Dale, Ill.). A total of 5∝g/2.5 ul of α-Syn PFF was infused in the dorsal striatum (+0.2 mm relative to Bregma, +2.0 mm from midline, +2.6 mm beneath the dura) at a delivery rate of 0.2∝l/min (61). The needle was kept in place for 5 min following the infusion to prevent reflux before withdrawing.
Immunohistochemical analyses were performed as described previously (Lee et al., 2011; 2012). Mice were perfused transcardially with PBS, and brains were removed and post-fixed in 10% formalin at 4° C. overnight. Fixed brains were then sectioned coronally in 30 am thickness using a cryostat and collected as sets of slices with the same interval. Free-floating sections were blocked by 1% BSA and 0.2% Triton X100 in PBS. Sections were then incubated with primary antibody overnight at 4° C. and biotinylated secondary antibody for 1 hour at room temperature.
Vectastain elite ABC kit (Vector Laboratories, Burlingame, Calif.) and 3,3′-diaminobenzidine (Sigma-Aldrich) were used for amplifying and color development. Images were captured by Nikon Eclipse 55i. Staining intensity and phosphorylated α-synuclein (p-α-Syn) aggregate counts were obtained by Image Pro Plus. Intensity calibration was set to the level of a blank area in each image. HSI (hue, saturation and intensity) was used for the color selection with the standard parameters of H: 0-30, S: 0-255 and I: 0-160. […]

PP2A = experiment: Western blot of PP2A methylation, striatal tissue lysates of Syn^Tg mice; settings: EHT 12 mg/kg/day and/or caffeine 50 mg/kg/day
Text: as §2
Human neuroblastoma SH-SY5Y cells were cultured in DMEM-F12 with 10% FBS. At 50% confluency, cells were treated with 1 gg/ml mouse α-Syn PFF in DMEM-F12 with 1% FBS for 7 days. Medium was refreshed every 3 days. Cell harvesting was done with 2% SDS in PBS supplemented with protease inhibitor (Millipore) and phosphatase inhibitor (Sigma-Aldrich). Lysates were sonicated and boiled at 95° C. for 5 minutes. Protein concentration was determined by bicinchonic acid (BCA) method (Pierce), equal amount of protein was separated on 5-20% SDS-PAGE gel (Genescript) and transferred to nitrocellulose or PVDF membrane (Biorad). Following transfer, membranes were blocked for 1 hour at room temperature in blocking buffer (Li-Cor) or 5% (w/v) BSA/TBS-Tween 0.1% (v/v). Primary antibodies were diluted in blocking buffer or 5% (w/v) BSA/TBS-Tween 0.1% (v/v) and incubated with the membranes at 4° C. overnight. Membranes were washed three times in TBS-Tween and incubated in diluted IRDye 800CW or HRP conjugated secondary antibody for 1 hour at room temperature. Following washing, membranes were scanned by Li-Cor Odyssey CLx infrared imaging system or treated with the Western Lightning ECL-plus reagents (PerkinElmer) and exposed to autoradiography films (LabScientific).

[2] = vs untreated α-Syn PFF inoculated mice

## CCCCCCCCCCCCCCCCCCCC(=O)NCCc1c[nH]c2ccc(O)cc12 [EHT, eicosanoyl-5-hydroxytryptamide]
c-fos
  c-fos immunoreactivity in the hippocampus: failed to increase c-fos immunoreactivity significantly
Iba-1
  microglial activation (Iba-1) in the contralateral striatum: only a partial effect that was statistically insignificant
  microglial activation (Iba-1) in the ipsilateral striatum: only a partial effect that was statistically insignificant
[1]
  p-α-Syn immunoreactivity in the ipsilateral nigra: less abundant
[1]; [2]
  p-α-Syn in the contralateral striatum: partially but insignificantly reduced
  p-α-Syn in the ipsilateral striatum: partially but insignificantly reduced
PP2A
  ratio between methyl- and demethyl-PP2A: did not change
PP2A; normalized to total PP2A
  Demethylated PP2A (demethyl-PP2A) levels: not affected
  Methylated PP2A (Methyl-PP2A) levels: did not change
